Drawing on patent US9073855B2, “BCL-2 selective apoptosis-inducing agents for the treatment of cancer and immune diseases” (AbbVie Inc., priority 2008, dated 2015), this text covers EC50 and Ki for 16 compounds.

The subject of one assay is Canine platelets. Briefly: Platelet cell viability assay (platelet-rich plasma, Cell Titer Glo). In kind it is cell-based. To be noted: Canis lupus familiaris, 5 h, isolated canine platelets ex vivo, five hours at 37° C. The procedure, abridged: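 Isolated canine platelets were incubated ex vivo with a range of compound concentrations. After 20 min equilibration at room temperature, viability was measured by Cell Titer Glo luminescence.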
Background: In ATP-based viability assays light output follows the ATP content of the culture.

The next assay addresses GST-Bcl-XL (Homo sapiens, UniProt Q07817). Briefly: TR-FRET binding assay, GST-Bcl-XL with F-Bak peptide probe. Particulars: TR-FRET Binding Affinity, GST-Bcl-XL, F-Bak peptide probe. The method, boiled down:
(§1)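 Ki was derived with Wang's equation for competitive binding of two ligands. The read-out was time-resolved fluorescence after a 3 h room-temperature incubation, using a Tb-labelled antibody donor and the F-Bak peptide acceptor (excitation 340/35 nm). Test compounds entered as DMSO serial dilutions starting at 50 μM, which was the 2× concentration.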
(TR-FRET usually uses a lanthanide donor and a delayed reading to cut background.)

The next assay addresses GST-Bcl-2 (Homo sapiens, UniProt P10415). Briefly: TR-FRET binding assay, GST-Bcl-2 with F-Bak peptide probe. Particulars: TR-FRET Binding Affinity, GST-Bcl-2, F-Bak peptide probe. The method, boiled down:
as §1

A further assay has as its system FL5.12/Bcl-2 cells. Kind of assay: FL5.12/Bcl-2 cell viability assay under IL-3 withdrawal (CellTitre Glo). In kind it is cell-based, murine. Particulars: Mus musculus, IL-3 withdrawn 48 hrs, then 24 hrs with compound. The procedure, abridged:
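Bcl-2-overexpressing murine FL5.12 transfectants underwent IL-3 removal for 48 hrs before a 24 hr compound treatment. Cell viability was quantified with CellTitre Glo.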

One may read the EC50 as the concentration needed to bring the measured effect to its halfway point. Usually Ki stands for a dissociation constant, usually derived from enzyme kinetics or from competition with a known ligand. High values mean weaker binding, low ones tighter binding.

Chain of GST-Bcl-XL (Q07817 whole entry): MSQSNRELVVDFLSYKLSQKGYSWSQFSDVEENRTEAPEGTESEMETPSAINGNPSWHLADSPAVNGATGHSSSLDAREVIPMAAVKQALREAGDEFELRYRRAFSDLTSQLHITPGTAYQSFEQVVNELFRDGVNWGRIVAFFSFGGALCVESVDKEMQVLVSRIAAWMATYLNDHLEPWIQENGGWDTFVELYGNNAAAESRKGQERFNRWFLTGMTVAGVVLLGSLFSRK
Chain of GST-Bcl-2 (P10415 whole entry): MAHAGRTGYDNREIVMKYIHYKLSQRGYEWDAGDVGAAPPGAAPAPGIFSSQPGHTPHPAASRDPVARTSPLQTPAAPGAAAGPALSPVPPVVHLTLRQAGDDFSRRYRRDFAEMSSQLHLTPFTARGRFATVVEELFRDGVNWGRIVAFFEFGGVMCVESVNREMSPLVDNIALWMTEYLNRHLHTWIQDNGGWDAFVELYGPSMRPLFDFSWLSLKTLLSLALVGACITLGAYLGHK

Turning to `O=C(NS(=O)(=O)c1ccc(NCC2CCOCC2)c([N+](=O)[O-])c1)c1ccc(N2CCN(Cc3ccccc3-c3ccc(Cl)cc3)CC2)cc1Oc1ccc2c(c1)CCN2` [Example 140, 4-{4-[(4′-chloro-1,1′-biphenyl-2-yl)methyl]piperazin-1-yl}-2-(2,3-dihydro-1H-indol-5-yloxy)-N-({3-nitro-4-[(tetrahydro-2H-pyran-4-ylmethyl)amino]phenyl}sulfonyl)benzamide], the EC50 is over 50000 nM in the assay with Canine platelets and 2130 nM in the assay on FL5.12/Bcl-2 cells. Also, the inhibition constant (Ki) at GST-Bcl-XL was over 660 nM; at GST-Bcl-2 it was 4.73 nM.
For `O=C(NS(=O)(=O)c1ccc(NCCCN2CCCC2)c([N+](=O)[O-])c1)c1ccc(N2CCN(CC3=C(c4ccc(Cl)cc4)CCCCC3)CC2)cc1Oc1cccc2[nH]ccc12` [Example 141, 4-(4-{[2-(4-chlorophenyl)cyclohept-1-en-1-yl]methyl}piperazin-1-yl)-2-(1H-indol-4-yloxy)-N-({3-nitro-4-[(3-pyrrolidin-1-ylpropyl)amino]phenyl}sulfonyl)benzamide], in that order: over 50000 nM, 76 nM, 28.6 nM and 0.673 nM.
For `O=C(NS(=O)(=O)c1ccc(NCCCN2CCCC2)c([N+](=O)[O-])c1)c1ccc(N2CCN(CC3=C(c4ccc(Cl)cc4)CCCCCC3)CC2)cc1Oc1cccc2[nH]ccc12` [Example 142, 4-(4-{[2-(4-chlorophenyl)cyclooct-1-en-1-yl]methyl}piperazin-1-yl)-2-(1H-indol-4-yloxy)-N-({3-nitro-4-[(3-pyrrolidin-1-ylpropyl)amino]phenyl}sulfonyl)benzamide], in that order: over 50000 nM, 270 nM, 102 nM and 3.66 nM.
For `O=C(NS(=O)(=O)c1ccc(NCCCN2CCCC2)c([N+](=O)[O-])c1)c1ccc(N2CCN(CC3=C(c4ccc(Cl)cc4)CCC3)CC2)cc1Oc1cccc2[nH]ccc12` [Example 143, 4-(4-{[2-(4-chlorophenyl)cyclopent-1-en-1-yl]methyl}piperazin-1-yl)-2-(1H-indol-4-yloxy)-N-({3-nitro-4-[(3-pyrrolidin-1-ylpropyl)amino]phenyl}sulfonyl)benzamide], in that order: over 50000 nM, 199 nM, 75.4 nM and 2.23 nM.
For `CN1CCC(Nc2ccc(S(=O)(=O)NC(=O)c3ccc(N4CCN(CC5=C(c6ccc(Cl)cc6)CC(C)(C)C5)CC4)cc3Oc3cccc4[nH]ccc34)cc2[N+](=O)[O-])CC1` [Example 144, 4-(4-{[2-(4-chlorophenyl)-4,4-dimethylcyclopent-1-en-1-yl]methyl}piperazin-1-yl)-2-(1H-indol-4-yloxy)-N-({4-[(1-methylpiperidin-4-yl)amino]-3-nitrophenyl}sulfonyl)benzamide], the EC50 amounted to 40000 nM with Canine platelets and 46 nM in the assay on FL5.12/Bcl-2 cells. The inhibition constant Ki is over 660 nM at GST-Bcl-XL and 53.9 nM on GST-Bcl-2.
Consider `CN1CCC(Nc2ccc(S(=O)(=O)NC(=O)c3ccc(N4CCN(CC5=C(c6ccc(Cl)cc6)CC(C)(C)OC5)CC4)cc3Oc3cccc4[nH]ccc34)cc2[N+](=O)[O-])CC1` [Example 145, 4-(4-{[4-(4-chlorophenyl)-6,6-dimethyl-5,6-dihydro-2H-pyran-3-yl]methyl}piperazin-1-yl)-2-(1H-indol-4-yloxy)-N-({4-[(1-methylpiperidin-4-yl)amino]-3-nitrophenyl}sulfonyl)benzamide], for which the concentration for a half-maximal effect (EC50) in the assay on Canine platelets was determined as 3210 nM; in the assay on FL5.12/Bcl-2 cells it was 4 nM. Besides, the Ki on GST-Bcl-XL was 12 nM; at GST-Bcl-2 it was 0.03 nM.
The matching figures for `CN1CCC(Nc2ccc(S(=O)(=O)NC(=O)c3ccc(N4CCN(CC5=C(c6ccc(Cl)cc6)CCCCCC5)CC4)cc3Oc3cccc4[nH]ccc34)cc2[N+](=O)[O-])CC1` [Example 146, 4-(4-{[2-(4-chlorophenyl)cyclooct-1-en-1-yl]methyl}piperazin-1-yl)-2-(1H-indol-4-yloxy)-N-({4-[(1-methylpiperidin-4-yl)amino]-3-nitrophenyl}sulfonyl)benzamide]: 22000 nM, 152 nM, over 660 nM and 44.2 nM.
In the case of `CN1CCC(Nc2ccc(S(=O)(=O)NC(=O)c3ccc(N4CCN(CC5=C(c6ccc(Cl)cc6)CCCCC5)CC4)cc3Oc3cccc4[nH]ccc34)cc2[N+](=O)[O-])CC1` [Example 147, 4-(4-{[2-(4-chlorophenyl)cyclohept-1-en-1-yl]methyl}piperazin-1-yl)-2-(1H-indol-4-yloxy)-N-({4-[(1-methylpiperidin-4-yl)amino]-3-nitrophenyl}sulfonyl)benzamide], the 50% effective concentration (EC50) in the assay on Canine platelets was found to be 17600 nM; in the assay with FL5.12/Bcl-2 cells, 9 nM. Further, the Ki at GST-Bcl-XL is over 660 nM; on GST-Bcl-2, 0.514 nM.
The matching figures for `CN1CCC(Nc2ccc(S(=O)(=O)NC(=O)c3ccc(N4CCN(CC5=C(c6ccc(Cl)cc6)CCCC5)CC4)cc3Oc3cccc4[nH]ccc34)cc2[N+](=O)[O-])CC1` [Example 149, 4-(4-{[2-(4-chlorophenyl)cyclohex-1-en-1-yl]methyl}piperazin-1-yl)-2-(1H-indol-4-yloxy)-N-({4-[(1-methylpiperidin-4-yl)amino]-3-nitrophenyl}sulfonyl)benzamide]: 16700 nM, 13 nM, over 660 nM and 0.265 nM.
The matching figures for `CN1CCC(Nc2ccc(S(=O)(=O)NC(=O)c3ccc(N4CCN(CC5=C(c6ccc(Cl)cc6)CC(C)(C)OC5)CC4)cc3Oc3ccc4[nH]ccc4c3)cc2[N+](=O)[O-])CC1` [Example 150, 4-(4-{[4-(4-chlorophenyl)-6,6-dimethyl-5,6-dihydro-2H-pyran-3-yl]methyl}piperazin-1-yl)-2-(1H-indol-5-yloxy)-N-({4-[(1-methylpiperidin-4-yl)amino]-3-nitrophenyl}sulfonyl)benzamide]: 2900 nM, 6 nM, 9.34 nM and 0.014 nM.
The matching figures for `CN1CCC(Nc2ccc(S(=O)(=O)NC(=O)c3ccc(N4CCN(CC5=C(c6ccc(Cl)cc6)CCCCC5)CC4)cc3Oc3ccc4[nH]ccc4c3)cc2[N+](=O)[O-])CC1` [Example 151, 4-(4-{[2-(4-chlorophenyl)cyclohept-1-en-1-yl]methyl}piperazin-1-yl)-2-(1H-indol-5-yloxy)-N-({4-[(1-methylpiperidin-4-yl)amino]-3-nitrophenyl}sulfonyl)benzamide]: 31400 nM, 49 nM, over 660 nM and 0.162 nM.
On to `CN1CCC(Nc2ccc(S(=O)(=O)NC(=O)c3ccc(N4CCN(CC5=C(c6ccc(Cl)cc6)CC(C)(C)CC5)CC4)cc3Oc3ccccc3)cc2[N+](=O)[O-])CC1` [Example 152, 4-(4-{[2-(4-chlorophenyl)-4,4-dimethylcyclohex-1-en-1-yl]methyl}piperazin-1-yl)-N-({4-[(1-methylpiperidin-4-yl)amino]-3-nitrophenyl}sulfonyl)-2-phenoxybenzamide], for which the results for the EC50 in the assay on Canine platelets and in the assay with FL5.12/Bcl-2 cells were 2660 nM and 9 nM, respectively. Also, the inhibition constant Ki at GST-Bcl-XL turned out to be 0.412 nM; at GST-Bcl-2 it was 0.026 nM.
For `CN(C)CCCNc1ccc(S(=O)(=O)NC(=O)c2ccc(N3CCN(Cc4ccccc4-c4ccc(Cl)cc4)CC3)cc2Oc2ccccc2)cc1[N+](=O)[O-]` [Example 154, 4-{4-[(4′-chloro-1,1′-biphenyl-2-yl)methyl]piperazin-1-yl}-N-[(4-{[3-(dimethylamino)propyl]amino}-3-nitrophenyl)sulfonyl]-2-phenoxybenzamide], in that order: 29000 nM, 85 nM, 5.38 nM and 0.133 nM.
For `O=C(NS(=O)(=O)c1ccc(NCCCN2CCOCC2)c([N+](=O)[O-])c1)c1ccc(N2CCN(Cc3ccccc3-c3ccc(Cl)cc3)CC2)cc1Oc1ccccc1` [Example 155, 4-{4-[(4′-chloro-1,1′-biphenyl-2-yl)methyl]piperazin-1-yl}-N-({4-[(3-morpholin-4-ylpropyl)amino]-3-nitrophenyl}sulfonyl)-2-phenoxybenzamide], in that order: over 50000 nM, 421 nM, 37.7 nM and 0.484 nM.
For `CN(C)CCCNc1ccc(S(=O)(=O)NC(=O)c2ccc(N3CCN(Cc4ccccc4-c4ccc(Cl)cc4)CC3)cc2Oc2ccc3ccccc3c2)cc1[N+](=O)[O-]` [Example 166, 4-{4-[(4′-chloro-1,1′-biphenyl-2-yl)methyl]piperazin-1-yl}-N-[(4-{[3-(dimethylamino)propyl]amino}-3-nitrophenyl)sulfonyl]-2-(2-naphthyloxy)benzamide], in that order: over 50000 nM, 153 nM, 3.27 nM and 0.459 nM.
Consider `CN(C)CCCNc1ccc(S(=O)(=O)NC(=O)c2ccc(N3CCN(CC4=C(c5ccc(Cl)cc5)CC(C)(C)CC4)CC3)cc2Oc2ccc3[nH]ccc3c2)cc1S(=O)(=O)C(F)(F)F` [Example 170, 4-(4-{[2-(4-chlorophenyl)-4,4-dimethylcyclohex-1-en-1-yl]methyl}piperazin-1-yl)-N-({4-{[3-(dimethylamino)propyl]amino}-3-[(trifluoromethyl)sulfonyl]phenyl}sulfonyl)-2-(1H-indol-5-yloxy)benzamide], for which the EC50 with Canine platelets is 7350 nM; with FL5.12/Bcl-2 cells it was 15 nM. Also, the inhibition constant Ki at GST-Bcl-XL came out at 3.8 nM; on GST-Bcl-2 it was 0.126 nM.
